Measurements as given in PubChem BioAssay (NCI).
“And” between values parts separate entries of the source, which are not always exact repeats. Equal values may be shown once.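 Tested at 5 concentrations; 48 h exposure; 96-well plates; endpoints linearly interpolated, else capped at highest concentration. GI50 = concentration required for 50% inhibition of growth. TGI: total growth inhibition.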

What was measured:
Experiment in all cases: NCI tumour cell line growth inhibition, 48 h
[1] = system: OVCAR-3 ovarian
[2] = system: A498 renal
[3] = system: SR leukemia
[4] = system: HCT-116 colon
[5] = system: SNB-19 CNS
[6] = system: NCI-H460 lung
[7] = system: RPMI-8226 leukemia
[8] = system: OVCAR-5 ovarian
[9] = system: NCI-H522 lung
[10] = system: SNB-75 CNS

| SMILES | TGI [1] | TGI [2] | TGI [3] | TGI [4] | TGI [5] | TGI [6] | TGI [7] | TGI [8] | TGI [9] | TGI [10] | GI50 [1] | GI50 [2] | GI50 [3] | GI50 [4] | GI50 [5] | GI50 [6] | GI50 [7] | GI50 [8] | GI50 [9] | GI50 [10] |
| --- | --- | --- | --- | --- | --- | --- | --- | --- | --- | --- | --- | --- | --- | --- | --- | --- | --- | --- | --- | --- |
| C[C@@H](CN1CC(=O)NC(=O)C1)N1CC(=O)NC(=O)C1 | 767 µM | 698 µM | 1470 µM | 750 µM | 1370 µM | 553 µM | 2300 µM | 1190 µM | 518 µM | 929 µM |  |  |  |  |  |  |  |  |  |  |
| O=C(O)/C(Cl)=C(\Cl)C(=O)NC1C2CC3CC(C2)CC1C3 (stereo unspecified) | > 100 µM | > 100 µM | > 100 µM | > 100 µM | > 100 µM |  | > 100 µM | > 100 µM | > 100 µM | > 100 µM |  |  |  |  |  |  |  |  |  |  |
| O=C(O)c1cc2ccccc2oc1=O | > 100 µM | > 100 µM | > 100 µM | > 100 µM | > 100 µM | > 100 µM | > 100 µM | > 100 µM | > 100 µM | > 100 µM |  |  |  |  |  |  |  |  |  |  |
| CN1CCN(c2ccc(Nc3nc(N)c(C(=O)c4ccc5c(c4)OCCO5)s3)cc2)CC1 | 9.69 µM | 6.22 µM | 12.7 µM | > 15.5 µM | 24.3 µM | 9.75 µM | 11.6 µM | 8.48 µM | 9.84 µM | 6 µM | 4.05 µM | 2.3 µM | 2.02 µM | 2.27 µM | 4.14 µM | 2.85 µM | 3.85 µM | 2.86 µM | 4.32 µM | 2.28 µM |
| CCN(CC)c1ccc2c(c1)Oc1nc(N)c(C#N)c(N)c1C2Sc1ccc(OC)cc1 (stereo unspecified) | 3.1 µM | 4.14 µM | 4.78 µM | 3.12 µM | 3.26 µM | 3.81 µM | 5.02 µM | 4.6 µM | 3.38 µM | 2.89 µM | 1.69 µM | 2.29 µM | 1.67 µM | 1.65 µM | 1.8 µM | 1.94 µM | 1.96 µM | 2.04 µM | 1.79 µM | 1.51 µM |
| Nc1ncnc2c1c(-c1cccc(OCc3ccccc3)c1)cn2C1CC(CN2CCC2)C1 (stereo unspecified) | 19.3 µM and > 10 µM | 5.59 µM and 6.85 µM | 6.08 µM and 4.18 µM | 11.5 µM and > 10 µM | 20.5 µM and > 10 µM | 15.4 µM and > 10 µM | 5.41 µM and 5.31 µM | 14.9 µM and > 10 µM | 5.92 µM and > 10 µM | 4.86 µM and 8.46 µM | 6.26 µM and 7.96 µM | 1.74 µM and 1.24 µM | 2.22 µM and 1.69 µM | 1.85 µM and 2.58 µM | 6.37 µM and 7.05 µM | 2.41 µM and 2.87 µM | 1.9 µM and 2.18 µM | 0.844 µM and 2.48 µM | 2.18 µM and 7.48 µM | 1.7 µM and 2.29 µM |
| Cc1cc(O)c(C2=NN(c3ccc(S(N)(=O)=O)cc3)C(c3ccc(N(C)C)cc3)C2)c(C)c1Cl (stereo unspecified) | 33.3 µM | 43.9 µM | 41 µM | 21.1 µM | 62.6 µM | 27.4 µM | 37.5 µM | 38.1 µM | 48.4 µM | 42.2 µM | 17.8 µM | 26.7 µM | 14.1 µM | 7.6 µM | 22.2 µM | 12.2 µM | 7.25 µM | 19.4 µM | 18.6 µM | 17 µM |
| C=C1c2[nH]c3ccccc3c2C2C(CC)C1CCN2C (stereo unspecified) | > 100 µM | 70 µM | 74.8 µM | > 100 µM | > 100 µM | > 100 µM | 88.8 µM | > 100 µM | > 100 µM |  |  |  |  |  |  |  |  |  |  |  |
| CN1C(=O)[C@@H](NC(=O)[C@H](CCC(F)(F)F)[C@H](CCC(F)(F)F)C(N)=O)N=C(c2ccccc2)c2ccccc21 | > 100 µM | > 100 µM | > 100 µM | > 100 µM | > 100 µM | > 100 µM | > 100 µM | > 100 µM | > 100 µM | > 100 µM | > 100 µM | 47.7 µM | 28.4 µM | 56.7 µM | > 100 µM | 83.4 µM | 58.7 µM | > 100 µM | 85.2 µM | 32.6 µM |
| COc1ccc(-c2nc(C(=O)c3ccccc3)n(CC(=O)c3ccccc3)c2-c2ccc(OC)cc2)cc1 | > 100 µM | > 100 µM | > 100 µM | > 100 µM | > 100 µM | > 100 µM | > 100 µM | > 100 µM | > 100 µM | > 100 µM | > 100 µM | > 100 µM | > 100 µM | > 100 µM | > 100 µM | > 100 µM | > 100 µM | > 100 µM | > 100 µM | > 100 µM |
| O=S(=O)(SCc1ccccc1)C(c1ccccc1)c1ccccc1 | > 100 µM | > 100 µM | 74.6 µM | > 100 µM | > 100 µM | > 100 µM | 85.6 µM | > 100 µM | 57.8 µM | > 100 µM |  |  |  |  |  |  |  |  |  |  |
| Cc1nc(CN2CCCCC2)c(O)c(=O)[nH]1 | > 100 µM | > 100 µM | > 100 µM | > 100 µM | > 100 µM | > 100 µM | > 100 µM | > 100 µM | > 100 µM | > 100 µM |  |  |  |  |  |  |  |  |  |  |
| Clc1ccc(C2=Nn3c(nnc3-c3cc(Cl)cc(Cl)c3Cl)SC2)cc1 | 50.8 µM | > 100 µM | 7.34 µM | > 100 µM | 36.2 µM | > 100 µM | > 100 µM | > 100 µM | 46.2 µM | 34.2 µM | 21.2 µM | 31.1 µM | 3.1 µM | 22.1 µM | 15.6 µM | 41.3 µM | 44.3 µM | 36.7 µM | 12.7 µM | 14.8 µM |
| Fc1ccc(-c2ncn(C3CCNCC3)c2-c2ccnc(Oc3ccc(F)c(F)c3)n2)cc1 | > 14.4 µM | > 25 µM | 13.4 µM | 7.56 µM | > 25 µM | 13.1 µM | > 23.7 µM | > 25 µM | 10.5 µM | > 25 µM | 6.68 µM | 10.8 µM | 6.23 µM | 4.09 µM | 12.2 µM | 5.42 µM | 12.5 µM | 7.78 µM | 5.52 µM | 8.64 µM |
| Cc1ccc(C2NC(=O)c3ccccc3N2)s1 (stereo unspecified) | 50.2 µM | > 100 µM | > 100 µM | > 100 µM | > 100 µM | 58.4 µM | > 100 µM | > 100 µM | 18.6 µM |  |  |  |  |  |  |  |  |  |  |  |
| NC(=O)c1coc(C2OC(CO)C(O)C2O)n1 (stereo unspecified) | > 100 µM | > 100 µM | > 100 µM | > 100 µM | > 100 µM | > 100 µM | > 100 µM | > 100 µM | > 100 µM |  |  |  |  |  |  |  |  |  |  |  |
